Measurements: paper PMC7509492, “To What Extent Do Fluorophores Bias the Biological Activity of Peptides? A Practical Approach Using Membrane-Active Peptides as Models” (Frontiers in Bioengineering and Biotechnology, 2020)
Ends that are not written are not given here. Peptide text beside a SMILES is read from it. * marks the point of attachment. RhodamineB = CCN(CC)c1ccc2c(-c3ccccc3C(=O)*)c3ccc(=[N+](CC)CC)cc-3oc2c1; X1 = CC[N+]1=C(C=CC=C2N(CCCCCC(=O)*)c3ccccc3C2(C)C)C(C)(C)c2ccccc21; 5FAM = O=C1OC2(c3ccc(O)cc3Oc3cc(O)ccc32)c2ccc(C(=O)*)cc21

How the values were obtained:
[1] = CellTiter-Blue cell viability assay, MDA-MB-231; assay type: cell-based, human; details: human, MDA-MB-231 cells, mean ± SD, triplicates of three independent experiments; for IC90 at 24 h: Table 1, concentration causing 90% cell death, peptide 0.01-100 μM, read-out: Cytotoxicity MDA-MB-231 cells IC90; for IC50 at 24 h: Table 1, peptide 0.01-100 μM, read-out: Cytotoxicity MDA-MB-231 cells IC50
Protocol: (§1) Peptides cytotoxicity against both HBEC-5i and MDA-MB-231 cells was determined using CellTiter-Blue® Cell Viability Assay, according to the manufacturer’s instructions. The assay is based on the ability of viable cells to reduce resazurin into resorufin, a highly fluorescent metabolite. […] Therefore, using this methodology is possible to distinguish between metabolic and non-metabolic cells and indirectly determine the cytotoxicity of peptides. Briefly, HBEC-5i and MDA-MB-231 cells were carefully detached from T-flasks, as described previously, and seeded 15,000/100 and 10,000/100 μL, respectively, in 96-well plates (Corning, United States) and incubated for 24 h. After medium removal, cells were washed two times with 1× PBS and 100 μL of previously diluted peptides (range between 0.01 and 100 μM) in either DMEM or DMEM:F12 medium were added to MDA-MB-231 or HBEC-5i cells, respectively. After 24 h incubation, cells were washed two times with 1× PBS, and 20 μL of CellTiter-Blue® Reagent (diluted in 100 μL of medium) was added to each well and incubated for 3 h in a humidified atmosphere of 5% CO2 at 37°C. The fluorescence intensity was measured at λ with an excitation of 560 nm and maximum emission at 590 nm using the infinite F200 TECAN plate reader. Medium and 1% Triton X-100-containing medium were used as positive controls (100% cell viability) and negative controls (0% cell viability), respectively. Cell viability (%) was determined using the following equation:
(§2) (7) CellViability=FP-FNC/FPC-FNC×100
(§3) Fp is the fluorescence intensity of peptide-treated cells, FNC is the fluorescence intensity for negative controls, and FPC is the fluorescence intensity for positive controls.
(§4) Experiments were performed on different days using independently grown cell cultures.
(§5) FIGURE 4 In vitro cytotoxicity unlabeled- and labeled-peptides. (A,B) Cytotoxicity against HBEC-5i cells. (C,D) Cytotoxicity against MDA-MB-231 cells. 1.5 × 10^4 and 1.0 × 10^4 cells of HBEC-5i and MDA-MB-231 cells, respectively, were incubated with various concentrations of peptides (range from 0.01 to 100 μM). The percentage of viability was determined using CellTiter® Blue reagent assay. […] Error bars, S.D.

MDA-MB-231 cells = assay: CellTiter-Blue cell viability assay, MDA-MB-231; assay type: cell-based, human; details: peptide 0.01-100 μM, mean ± SD, triplicates of three independent experiments; for Cytotoxicity MDA-MB-231 cells IC10: Table 1, concentration causing 10% cell death; for Cytotoxicity MDA-MB-231 cells IC10 / IC90: 24 h; for IC50: Table 1, 24 h, read-out: Cytotoxicity MDA-MB-231 cells IC50; for IC90: Table 1, concentration causing 90% cell death, read-out: Cytotoxicity MDA-MB-231 cells IC90
Protocol: as §1, §2, §3, §4, §5

human RBCs = assay: Hemolytic activity on human red blood cells; details: Table 1, human RBCs in 1x PBS pH 7.4, 24 h, 37°C, peptide 0.01-100 μM, mean ± SD, triplicates of three independent experiments; for Hemolytic activity HC10: concentration causing 10% hemolysis, hemoglobin absorbance 570 nm; for Hemolytic activity HC50: concentration causing 50% hemolysis; for Hemolytic activity HC50 / Hemolytic activity HC90: absorbance 570 nm; for Hemolytic activity HC90: concentration causing 90% hemolysis
Protocol: Fresh human blood was collected in EDTA tubes and centrifuged at 1,000 × g for 10 min at 4°C. The supernatant was discharged, and the pellet containing RBCs was washed three times with 1× PBS (137 mM NaCl, 2.7 mM KCl, 10 mM Na2HPO4, and 1.8 mM KH2PO4, pH 7.4) and resuspended in 1× PBS to obtain a 2.0% (v/v) suspension. Then, RBCs were added to centrifuge tubes containing two-fold serially diluted peptides to a final concentration ranging from 0.01 to 100 μM. The suspension was incubated for 24 h at 37°C with gentle stirring. After that, samples were centrifuged for 2 min at 1,000 × g. Supernatants were transferred to 96-well plates, and the hemoglobin released measured by absorbance at 570 nm in an Infinite F200 TECAN plate reader. 1× PBS with no peptides and Triton X-100 at 1 and 4% (v/v) were used as negative and positive controls, respectively. Hemolytic activity (%) was determined using the following equation:
(2) Hemolyticactivity(%)=AbsPT-AbsNC/AbsPC-AbsNC
where, AbsPT is the absorbance of treated samples, AbsNC is the absorbance from negative control, and AbsPC absorbance from positive control.
HC50 values were determined using the GraphPad Prism 7.0 software using a log(inhibitor) vs. normalized response. Experiments were performed on different days using independent blood donors.
(range from 0.01 to 100 μM). The percentage of hemolysis was determined by the absorbance of hemoglobin released into the supernatant. Melittin was included as a control peptide with hemolytic properties. The values were obtained from triplicates of three independent experiments. Error bars, S.D.

CC[N+]1=C(C=CC=C2N(CCCCCC(=O)N[C@@H](Cc3c[nH]c4ccccc34)C(=O)N[C@@H](CCCNC(=N)N)C(=O)N[C@@H](CCCNC(=N)N)C(=O)N[C@@H](CCCNC(=N)N)C(=O)N[C@@H](Cc3ccc(O)cc3)C(=O)N[C@@H](CCCNC(=N)N)C(=O)N[C@@H](CCCNC(=N)N)C(=O)N[C@@H](Cc3c[nH]c4ccccc34)C(=O)N[C@@H](CCCNC(=N)N)C(=O)N[C@@H](CCCNC(=N)N)C(=O)N[C@@H](CCCNC(=N)N)C(=O)N[C@@H](CCCNC(=N)N)C(=O)N[C@@H](CCCNC(=N)N)C(=O)N[C@@H](Cc3c[nH]c4ccccc34)C(=O)N[C@@H](CCCNC(=N)N)C(=O)N[C@@H](CCCNC(=N)N)C(=O)N[C@@H](CCCNC(=N)N)C(=O)N3CCC[C@H]3C(=O)N[C@@H](CCCNC(=N)N)C(=O)N[C@@H](CCCNC(=N)N)C(N)=O)c3ccccc3C2(C)C)C(C)(C)c2ccccc21 [Q570-vCPP2319] (X1-WRRRYRRWRRRRRWRRRPRR-NH2)
IC90 at 24 h [1]: 16 ± 1.94 µM | IC50 at 24 h [1]: 4.26 ± 1.03 µM | Cytotoxicity MDA-MB-231 cells IC10 (MDA-MB-231 cells): 1.14 ± 0.34 µM

TF3-KKRLKKIFKKPMVIGVTIPF-amide [TF3-Ctn[15-34]]
IC50 (MDA-MB-231 cells): 123 ± 3.84 µM | Cytotoxicity MDA-MB-231 cells IC10 (MDA-MB-231 cells): 2.57 ± 1.37 µM | IC90 (MDA-MB-231 cells): > 200 µM | Hemolytic activity HC10 (human RBCs): 102.0 ± 6.20 µM | Hemolytic activity HC50 (human RBCs): >200 µM | Hemolytic activity HC90 (human RBCs): >200 µM

CC[C@H](C)[C@H](NC(=O)[C@H](CCCCN)NC(=O)[C@H](CCCCN)NC(=O)[C@H](CC(C)C)NC(=O)[C@H](CCCNC(=N)N)NC(=O)[C@H](CCCCN)NC(=O)[C@H](CCCCN)NC(=O)c1ccccc1-c1c2ccc(=[N+](CC)CC)cc-2oc2cc(N(CC)CC)ccc12)C(=O)N[C@@H](Cc1ccccc1)C(=O)N[C@@H](CCCCN)C(=O)N[C@@H](CCCCN)C(=O)N1CCC[C@H]1C(=O)N[C@@H](CCSC)C(=O)N[C@H](C(=O)N[C@H](C(=O)NCC(=O)N[C@H](C(=O)N[C@H](C(=O)N[C@H](C(=O)N1CCC[C@H]1C(=O)N[C@@H](Cc1ccccc1)C(N)=O)[C@@H](C)CC)[C@@H](C)O)C(C)C)[C@@H](C)CC)C(C)C [RhB-Ctn[15-34]] (RhodamineB-KKRLKKIFKKPMVIGVTIPF-NH2)
IC90 at 24 h [1]: > 200 µM | IC50 at 24 h [1]: > 200 µM | Cytotoxicity MDA-MB-231 cells IC10 (MDA-MB-231 cells): 2.97 ± 0.98 µM | Hemolytic activity HC10 (human RBCs): 3.29 ± 1.32 µM | Hemolytic activity HC50 (human RBCs): 61.43 ± 4.33 µM | Hemolytic activity HC90 (human RBCs): >200 µM

N=C(N)NCCC[C@H](NC(=O)[C@H](CCCNC(=N)N)NC(=O)[C@@H]1CCCN1C(=O)[C@H](CCCNC(=N)N)NC(=O)[C@H](CCCNC(=N)N)NC(=O)[C@H](CCCNC(=N)N)NC(=O)[C@H](Cc1c[nH]c2ccccc12)NC(=O)[C@H](CCCNC(=N)N)NC(=O)[C@H](CCCNC(=N)N)NC(=O)[C@H](CCCNC(=N)N)NC(=O)[C@H](CCCNC(=N)N)NC(=O)[C@H](CCCNC(=N)N)NC(=O)[C@H](Cc1c[nH]c2ccccc12)NC(=O)[C@H](CCCNC(=N)N)NC(=O)[C@H](CCCNC(=N)N)NC(=O)[C@H](Cc1ccc(O)cc1)NC(=O)[C@H](CCCNC(=N)N)NC(=O)[C@H](CCCNC(=N)N)NC(=O)[C@H](CCCNC(=N)N)NC(=O)[C@H](Cc1c[nH]c2ccccc12)NC(=O)c1ccc2c(c1)C(=O)OC21c2ccc(O)cc2Oc2cc(O)ccc21)C(N)=O [CF-vCPP2319] (5FAM-WRRRYRRWRRRRRWRRRPRR-NH2)
IC90 at 24 h [1]: 18.8 ± 1.87 µM | IC50 at 24 h [1]: 4.72 ± 0.94 µM | Cytotoxicity MDA-MB-231 cells IC10 (MDA-MB-231 cells): 1.26 ± 0.24 µM | Hemolytic activity HC10 (human RBCs): >200 µM | Hemolytic activity HC50 (human RBCs): >200 µM | Hemolytic activity HC90 (human RBCs): >200 µM

WRRRYRRWRRRRRWRRRPRR-NH2 [vCPP2319]
IC90 at 24 h [1]: 20.6 ± 2.1 µM | IC50 at 24 h [1]: 5.02 ± 1.04 µM | Cytotoxicity MDA-MB-231 cells IC10 (MDA-MB-231 cells): 1.22 ± 0.52 µM | Hemolytic activity HC10 (human RBCs): >200 µM | Hemolytic activity HC50 (human RBCs): >200 µM | Hemolytic activity HC90 (human RBCs): >200 µM

CCN(CC)c1ccc2c(-c3ccccc3C(=O)N[C@@H](Cc3c[nH]c4ccccc34)C(=O)N[C@@H](CCCNC(=N)N)C(=O)N[C@@H](CCCNC(=N)N)C(=O)N[C@@H](CCCNC(=N)N)C(=O)N[C@@H](Cc3ccc(O)cc3)C(=O)N[C@@H](CCCNC(=N)N)C(=O)N[C@@H](CCCNC(=N)N)C(=O)N[C@@H](Cc3c[nH]c4ccccc34)C(=O)N[C@@H](CCCNC(=N)N)C(=O)N[C@@H](CCCNC(=N)N)C(=O)N[C@@H](CCCNC(=N)N)C(=O)N[C@@H](CCCNC(=N)N)C(=O)N[C@@H](CCCNC(=N)N)C(=O)N[C@@H](Cc3c[nH]c4ccccc34)C(=O)N[C@@H](CCCNC(=N)N)C(=O)N[C@@H](CCCNC(=N)N)C(=O)N[C@@H](CCCNC(=N)N)C(=O)N3CCC[C@H]3C(=O)N[C@@H](CCCNC(=N)N)C(=O)N[C@@H](CCCNC(=N)N)C(N)=O)c3ccc(=[N+](CC)CC)cc-3oc2c1 [RhB-vCPP2319] (RhodamineB-WRRRYRRWRRRRRWRRRPRR-NH2)
IC90 at 24 h [1]: 16.6 ± 1.31 µM | IC50 at 24 h [1]: 4.11 ± 1.04 µM | Cytotoxicity MDA-MB-231 cells IC10 (MDA-MB-231 cells): 1.13 ± 0.64 µM | Hemolytic activity HC10 (human RBCs): 2.43 ± 0.32 µM | Hemolytic activity HC50 (human RBCs): 23.88 ± 2.24 µM | Hemolytic activity HC90 (human RBCs): >200 µM

KKRLKKIFKKPMVIGVTIPF-NH2 [Ctn[15-34]]
IC90 at 24 h [1]: > 200 µM | IC50 at 24 h [1]: > 200 µM | Cytotoxicity MDA-MB-231 cells IC10 (MDA-MB-231 cells): 4.76 ± 1.56 µM | Hemolytic activity HC10 (human RBCs): >200 µM | Hemolytic activity HC50 (human RBCs): >200 µM | Hemolytic activity HC90 (human RBCs): >200 µM

CC[C@H](C)[C@H](NC(=O)[C@H](CCCCN)NC(=O)[C@H](CCCCN)NC(=O)[C@H](CC(C)C)NC(=O)[C@H](CCCNC(=N)N)NC(=O)[C@H](CCCCN)NC(=O)[C@H](CCCCN)NC(=O)CCCCCN1C(=CC=CC2=[N+](CC)c3ccccc3C2(C)C)C(C)(C)c2ccccc21)C(=O)N[C@@H](Cc1ccccc1)C(=O)N[C@@H](CCCCN)C(=O)N[C@@H](CCCCN)C(=O)N1CCC[C@H]1C(=O)N[C@@H](CCSC)C(=O)N[C@H](C(=O)N[C@H](C(=O)NCC(=O)N[C@H](C(=O)N[C@H](C(=O)N[C@H](C(=O)N1CCC[C@H]1C(=O)N[C@@H](Cc1ccccc1)C(N)=O)[C@@H](C)CC)[C@@H](C)O)C(C)C)[C@@H](C)CC)C(C)C [Q570-Ctn[15-34]] (X1-KKRLKKIFKKPMVIGVTIPF-NH2)
IC90 at 24 h [1]: > 200 µM | IC50 at 24 h [1]: 144 ± 4.21 µM | Cytotoxicity MDA-MB-231 cells IC10 (MDA-MB-231 cells): 3.08 ± 1.22 µM

TF3-WRRRYRRWRRRRRWRRRPRR-amide [TF3-vCPP2319]
IC50 (MDA-MB-231 cells): 4.3 ± 0.03 µM | Cytotoxicity MDA-MB-231 cells IC10 (MDA-MB-231 cells): 1.05 ± 0.21 µM | IC90 (MDA-MB-231 cells): 17 ± 1.58 µM | Hemolytic activity HC10 (human RBCs): 2.83 ± 0.97 µM | Hemolytic activity HC50 (human RBCs): >200 µM | Hemolytic activity HC90 (human RBCs): >200 µM

CC[C@H](C)[C@H](NC(=O)[C@H](CCCCN)NC(=O)[C@H](CCCCN)NC(=O)[C@H](CC(C)C)NC(=O)[C@H](CCCNC(=N)N)NC(=O)[C@H](CCCCN)NC(=O)[C@H](CCCCN)NC(=O)c1ccc2c(c1)C(=O)OC21c2ccc(O)cc2Oc2cc(O)ccc21)C(=O)N[C@@H](Cc1ccccc1)C(=O)N[C@@H](CCCCN)C(=O)N[C@@H](CCCCN)C(=O)N1CCC[C@H]1C(=O)N[C@@H](CCSC)C(=O)N[C@H](C(=O)N[C@H](C(=O)NCC(=O)N[C@H](C(=O)N[C@H](C(=O)N[C@H](C(=O)N1CCC[C@H]1C(=O)N[C@@H](Cc1ccccc1)C(N)=O)[C@@H](C)CC)[C@@H](C)O)C(C)C)[C@@H](C)CC)C(C)C [CF-Ctn[15-34]] (5FAM-KKRLKKIFKKPMVIGVTIPF-NH2)
IC90 at 24 h [1]: > 200 µM | IC50 at 24 h [1]: > 200 µM | Cytotoxicity MDA-MB-231 cells IC10 (MDA-MB-231 cells): 4.23 ± 1.02 µM | Hemolytic activity HC10 (human RBCs): >200 µM | Hemolytic activity HC50 (human RBCs): >200 µM | Hemolytic activity HC90 (human RBCs): >200 µM
